The record followed here is ChEMBL document CHEMBL3817833, “Synthesis and evaluation of antitubercular activity of fluorinated 5-aryl-4-(hetero)aryl substituted pyrimidines” (Bioorg Med Chem, 2016).

For one data set, the system named is Mycolicibacter terrae. As to the kind of experiment: Antimycobacterial activity against Mycobacterium terrae after […] by microbroth dilution method. In kind it is functional. On the technique in general: Dilution methods test growth across graded concentrations, often in twofold steps.
The next data set relates to Mycobacterium avium. Kind of data set: Antimycobacterial activity against Mycobacterium avium after […] by microbroth dilution method. In kind it is functional.
Data set [1] deals with Mycobacterium tuberculosis. Kind of data set: Antimycobacterial activity against Mycobacterium tuberculosis H37Rv after […] by microbroth dilution method. It is filed as functional.
Data set [2] is described as follows: Acute toxicity in po dosed mouse. In kind it is organism-based. The settings on record: in vivo.
The nature of data set [3]: Acute toxicity in po dosed mouse administered as single dose measured after 14 days. It is filed as organism-based. The note with it: in vivo.

The structures appear in SMILES notation. Values after ≈ are worked out from the molar mass of the structure shown.

One may read the MIC as the lowest concentration found to suppress growth. Turning to `c1ccc(-c2cncnc2)cc1`, the MIC (against Mycolicibacter terrae; with Mycobacterium avium; in data set [1]) was 80 µM (≈ 12.5 µg/mL) throughout.

Consider `Fc1ccc(-c2cncnc2-c2cccs2)c(F)c1`, for which the MIC (against Mycolicibacter terrae; with Mycobacterium avium; in data set [1]) was 45.6 µM (≈ 12.5 µg/mL) each time.

For `FC(F)(F)c1ccc(-c2cncnc2-c2cccs2)cc1`, the MIC (against Mycolicibacter terrae; in the data set on Mycobacterium avium; in data set [1]) was 40.8 µM (≈ 12.5 µg/mL) in each case.

In the case of `Fc1ccc(-c2cncnc2-c2ccco2)cc1`, the MIC (against Mycolicibacter terrae; in the data set with Mycobacterium avium; in data set [1]) was 52 µM (≈ 12.5 µg/mL) each time.

In the case of `FC(F)(F)c1cc(-c2cncnc2-c2cccs2)cc(C(F)(F)F)c1`, the MIC (with Mycolicibacter terrae; with Mycobacterium avium; in data set [1]) was 33.4 µM (≈ 12.5 µg/mL) throughout.

Take `NC(=O)c1cnccn1` [PYRAZINAMIDE]: the MIC in data set [1] worked out at 102 µM (≈ 12.5 µg/mL).

Consider `Fc1ccc(-c2cncnc2)cc1`, for which the MIC (with Mycolicibacter terrae; with Mycobacterium avium; in data set [1]) was 71.8 µM (≈ 12.5 µg/mL) each time.

`FC(F)(F)c1cccc(-c2cncnc2)c1`: the MIC (against Mycolicibacter terrae; in the data set with Mycobacterium avium; in data set [1]) was 55.8 µM (≈ 12.5 µg/mL) in each case.

For the molecule `Fc1cc(F)cc(-c2cncnc2-c2ccco2)c1`, the MIC (against Mycolicibacter terrae; with Mycobacterium avium; in data set [1]) was 24 µM (≈ 6.2 µg/mL) in each case.

Regarding `Fc1ccccc1-c1cncnc1-c1ccco1`, the MIC (against Mycolicibacter terrae; with Mycobacterium avium; in data set [1]) was 52 µM (≈ 12.5 µg/mL) in each case.

Consider `FC(F)(F)c1ccc(-c2cncnc2-c2ccco2)cc1`, for which the MIC (against Mycolicibacter terrae; against Mycobacterium avium; in data set [1]) was 43.1 µM (≈ 12.5 µg/mL) in each case.

On to `Fc1cccc(-c2cncnc2)c1`, for which the minimal inhibitory concentration (MIC) (in the data set with Mycolicibacter terrae; in the data set with Mycobacterium avium; in data set [1]) was 35.9 µM (≈ 6.25 µg/mL) each time.

The LD50 is the dose expected to kill half of the subjects tested. High values mean lower toxicity, low ones greater toxicity. With `CC1COc2c(N3CCN(C)CC3)c(F)cc3c(=O)c(C(=O)O)cn1c23` (stereo not given) [OFLOXACIN], the minimum inhibitory concentration (MIC) (in the data set with Mycolicibacter terrae; in the data set on Mycobacterium avium; in data set [1]) was 0.28 µM (≈ 0.101 µg/mL) throughout. For the same molecule, in data set [2], the LD50 came out at 5450 mg/kg.

With `FC(F)(F)c1cc(-c2cncnc2)cc(C(F)(F)F)c1`, the MIC (against Mycolicibacter terrae; in the data set with Mycobacterium avium; in data set [1]) was 5.13 µM (≈ 1.5 µg/mL) each time.

Regarding `FC(F)(F)c1cc(-c2cncnc2-c2ccco2)cc(C(F)(F)F)c1`, the MIC (in the data set with Mycolicibacter terrae; in the data set on Mycobacterium avium; in data set [1]) was 8.65 µM (≈ 3.1 µg/mL) throughout.

Regarding `FC(F)(F)c1cccc(-c2cncnc2-c2cccs2)c1`, the MIC (with Mycolicibacter terrae; against Mycobacterium avium; in data set [1]) was 4.9 µM (≈ 1.5 µg/mL) in each case.

Regarding `c1ccc(-c2cncnc2-c2cccs2)cc1`, the MIC (against Mycolicibacter terrae; against Mycobacterium avium; in data set [1]) was 26 µM (≈ 6.2 µg/mL) throughout.

`Fc1cccc(-c2cncnc2-c2cccs2)c1`: the MIC in the data set on Mycolicibacter terrae worked out at 12.5 µM (≈ 3.2 µg/mL); against Mycobacterium avium it was 12.5 µM (≈ 3.2 µg/mL); in data set [1], 48.8 µM (≈ 12.5 µg/mL).

As to `FC(F)(F)c1ccc(-c2cncnc2-c2cccs2)c(C(F)(F)F)c1`, the MIC (with Mycolicibacter terrae; with Mycobacterium avium; in data set [1]) was 16.6 µM (≈ 6.2 µg/mL) each time.

`FC(F)(F)c1ccc(-c2cncnc2)c(C(F)(F)F)c1`: the MIC (against Mycolicibacter terrae; against Mycobacterium avium; in data set [1]) was 42.8 µM (≈ 12.5 µg/mL) in each case.

Turning to `c1ccc(-c2cncnc2-c2ccco2)cc1`, the MIC (against Mycolicibacter terrae; with Mycobacterium avium; in data set [1]) was 1.57 µM (≈ 0.349 µg/mL) throughout. In data set [3], this molecule gave an LD50 at 336 h of 150 mg/kg.

In the case of `Fc1cccc(-c2cncnc2-c2ccco2)c1`, the MIC (in the data set on Mycolicibacter terrae; with Mycobacterium avium; in data set [1]) was 6.24 µM (≈ 1.5 µg/mL) each time.

In the case of `Fc1ccccc1-c1cncnc1-c1cccs1`, the values for the MIC (against Mycolicibacter terrae; in the data set on Mycobacterium avium; in data set [1]) were 12.5 µM (≈ 3.2 µg/mL), 12.5 µM (≈ 3.2 µg/mL) and 48.8 µM (≈ 12.5 µg/mL), respectively.

For `NNC(=O)c1ccncc1` [ISONIAZID], the MIC (against Mycolicibacter terrae; against Mycobacterium avium; in data set [1]) was 0.73 µM (≈ 0.1 µg/mL) each time.

As to `Fc1ccccc1-c1cncnc1`, the MIC (against Mycolicibacter terrae; with Mycobacterium avium; in data set [1]) was 71.8 µM (≈ 12.5 µg/mL) throughout.

For the molecule `FC(F)(F)c1ccc(-c2cncnc2)cc1`, the MIC (against Mycolicibacter terrae; in the data set with Mycobacterium avium; in data set [1]) was 55.8 µM (≈ 12.5 µg/mL) each time.

Regarding `FC(F)(F)c1ccccc1-c1cncnc1-c1cccs1`, the MIC (in the data set with Mycolicibacter terrae; with Mycobacterium avium; in data set [1]) was 20.2 µM (≈ 6.2 µg/mL) throughout.

`Fc1cc(F)cc(-c2cncnc2)c1`: the MIC (with Mycolicibacter terrae; in the data set with Mycobacterium avium; in data set [1]) was 3.64 µM (≈ 0.699 µg/mL) each time. In addition, the LD50 at 336 h in data set [3] came to 300 mg/kg.

Turning to `FC(F)(F)c1ccccc1-c1cncnc1`, the MIC (in the data set with Mycolicibacter terrae; against Mycobacterium avium; in data set [1]) was 27.7 µM (≈ 6.2 µg/mL) throughout.

Consider `FC(F)(F)c1ccccc1-c1cncnc1-c1ccco1`, for which the MIC (in the data set with Mycolicibacter terrae; in the data set with Mycobacterium avium; in data set [1]) was 43.1 µM (≈ 12.5 µg/mL) in each case.

Consider `Fc1cc(F)cc(-c2cncnc2-c2cccs2)c1`, for which the MIC (in the data set with Mycolicibacter terrae; against Mycobacterium avium; in data set [1]) was 45.6 µM (≈ 12.5 µg/mL) each time.

Take `Fc1ccc(-c2cncnc2-c2cccs2)cc1`: the MIC in the data set on Mycolicibacter terrae was found to be 12.5 µM (≈ 3.2 µg/mL); in the data set on Mycobacterium avium, 12.5 µM (≈ 3.2 µg/mL); in data set [1], 48.8 µM (≈ 12.5 µg/mL).

`Fc1ccc(-c2cncnc2)c(F)c1`: the MIC (with Mycolicibacter terrae; against Mycobacterium avium; in data set [1]) was 16.1 µM (≈ 3.1 µg/mL) throughout.

As to `FC(F)(F)c1cccc(-c2cncnc2-c2ccco2)c1`, the MIC (against Mycolicibacter terrae; against Mycobacterium avium; in data set [1]) was 43.1 µM (≈ 12.5 µg/mL) each time.

Turning to `FC(F)(F)c1ccc(-c2cncnc2-c2ccco2)c(C(F)(F)F)c1`, the figures for the MIC (in the data set on Mycolicibacter terrae; with Mycobacterium avium; in data set [1]) were 0.98 µM (≈ 0.351 µg/mL), 1.95 µM (≈ 0.699 µg/mL) and 1.95 µM (≈ 0.699 µg/mL), respectively. For the same molecule, the 50% lethal dose (LD50) at 336 h in data set [3] was determined as 600 mg/kg.

Turning to `Fc1ccc(-c2cncnc2-c2ccco2)c(F)c1`, the MIC (against Mycolicibacter terrae; with Mycobacterium avium; in data set [1]) was 48.4 µM (≈ 12.5 µg/mL) throughout.
